“Also recorded” adds a separate entry of the source. Like-named read-outs stand apart in the source and are kept apart here.
Experiments:
Type in all cases: physicochemical
[1] = Rifaximin drying experiments, resulting solid form by XRPD
Method: (§1) X-ray powder diffraction (XRPD) analyses were performed using an Inel XRG-3000 diffractometer equipped with a CPS (Curved Position Sensitive) detector with a […] of 120°. Real time data were collected using Cu—Kα radiation. The tube voltage and amperage were set to 40 kV and 30 mA, respectively. The monochromator slit was set at 1-5 mm by 160 μm. […] Samples were prepared for analysis by packing them into thin-walled glass capillaries. Each capillary was mounted onto a goniometer head that is motorized to permit spinning of the capillary during data acquisition. The samples were analyzed for 300 seconds. Instrument calibration was performed using a silicon reference standard.

[2] = Moisture sorption/desorption (dynamic vapor sorption, DVS); details: for weight gain from 5 to 95% RH / weight gain (adsorption) from 5 to 95% RH: sorption 5 to 95% RH; for hygroscopicity (in words): from moisture sorption/desorption; for Post-DVS XRPD (solid form after moisture sorption): specimen after DVS cycle 5-95-5% RH
Method: Automated vapor sorption (VS) data were collected on a VTI SGA-100 Vapor Sorption Analyzer. NaCl and PVP were used as calibration standards. Samples were not dried prior to analysis. Sorption and desorption data were collected over a range from 5 to 95% RH at 10% RH increments under a nitrogen purge. The equilibrium criterion used for analysis was less than 0.0100% weight change in 5 minutes with a maximum equilibration time of 3 hours. Data were not corrected for the initial moisture content of the samples.
Moisture sorption/desorption data were collected on a VTI SGA-100 Vapor Sorption Analyzer. Sorption and desorption data were collected over a range of 5% to 95% relative humidity (RH) at 10% RH intervals under a nitrogen purge. Samples were not dried prior to analysis. Equilibrium criteria used for analysis were less than 0.0100% weight change in 5 minutes, with a maximum equilibration time of 3 hours if the weight criterion was not met. Data were not corrected for the initial moisture content of the samples. NaCl and PVP were used as calibration standards.

[3] = Stressing under various relative humidities / temperature and vacuum, resulting solid form by XRPD
Method: The jar was sealed and stored at either ambient temperature or in an oven at elevated temperature.
as §1
Samples were also analyzed using a PANalytical X'Pert Pro diffractometer. The specimen was analyzed using Cu radiation produced using an Optix long fine-focus source. An elliptically graded multilayer mirror was used to focus the Cu K α X-rays of the source through the specimen and onto the detector. The specimen was sandwiched between 3-micron thick films, analyzed in transmission geometry, and rotated to optimize orientation statistics. A beam-stop and a helium purge were used to minimize the background generated by air scattering. Soller slits were used for the incident and diffracted beams to minimize axial divergence. Diffraction patterns were collected using a scanning position-sensitive detector (X'Celerator) located 240 mm from the specimen […] a silicon specimen (NIST standard reference material 640c) was analyzed to verify the position of the silicon 111 peak.

## CO[C@H]1/C=C/O[C@@]2(C)Oc3c(C)c(O)c4c(O)c(c5c(nc6cc(C)ccn65)c4c3C2=O)NC(=O)/C(C)=C\C=C\[C@H](C)[C@H](O)[C@@H](C)[C@@H](O)[C@@H](C)[C@H](OC(C)=O)[C@@H]1C [Form Eta, Rifaximin]
[1]; vac oven, 40° C., 1 day, listed as η
  XRPD Form after drying: η

## CO[C@H]1/C=C/O[C@@]2(C)Oc3c(C)c(O)c4c(O)c(c5c(nc6cc(C)ccn65)c4c3C2=O)NC(=O)/C(C)=C\C=C\[C@H](C)[C@H](O)[C@@H](C)[C@@H](O)[C@@H](C)[C@H](OC(C)=O)[C@@H]1C [Form Gamma, Rifaximin, reference compound]
[2]; DVS, desorption 95 to 5% RH, listed as Rifaximin Form Gamma
  weight loss from 95 to 5% RH: 11.7%
[2]; DVS, equilibration at 5% RH, listed as Rifaximin Form Gamma
  initial weight loss upon equilibration at 5% RH: 2.4%
[2]; DVS, listed as Rifaximin Form Gamma
  weight gain from 5 to 95% RH: 10.8%
[2]; listed as Rifaximin Form Gamma
  hygroscopicity (in words): hygroscopic
[1]; vac oven / under vacuum, ambient, 1 day, listed as Form γ
  XRPD Form after drying: remained unchanged

## CO[C@H]1/C=C/O[C@@]2(C)Oc3c(C)c(O)c4c(O)c(c5c(nc6cc(C)ccn65)c4c3C2=O)NC(=O)/C(C)=C\C=C\[C@H](C)[C@H](O)[C@@H](C)[C@@H](O)[C@@H](C)[C@H](OC(C)=O)[C@@H]1C [Form Mu, Rifaximin]
[2]; DVS, desorption 95 to 5% RH, listed as rifaximin Form μ
  weight loss from 95 to 5% RH: 9.3%
[2]; DVS, equilibration at 5% RH, listed as rifaximin Form μ
  initial weight loss upon equilibration at 5% RH: 11.0%
[2]; DVS, listed as rifaximin Form μ
  weight gain from 5 to 95% RH: 9.5%
[2]; moisture balance, desorption
  % wt lost from 95%-5% RH: 9.3 % wt lost from 95%-5% RH
[2]; moisture balance, equilibration at 5% RH, signed change
  % wt change upon equilibration at 5% RH: −11.0 % wt change upon equilibration at 5% RH
[2]; moisture balance, sorption
  % wt gain from 5%-95% RH: 9.5 % wt gain from 5%-95% RH
[2]; listed as Rifaximin Form Mu
  Post-DVS XRPD (solid form after moisture sorption): Form γ
[2]; listed as rifaximin Form μ
  Post-DVS XRPD (solid form after moisture sorption): converted to Form Gamma
[3]; 59-62° C./Vacuum, ~24 hours
  XRPD result after stress: γ
[3]; 60° C./Vacuum, ~24 hours, listed as Form μ
  XRPD result after stress: irreversibly desolvates to Form Gamma; also recorded: irreversibly desolvates to Form γ
[3]; 60° C./Vacuum, ~24 hours, listed as Rifaximin Form μ
  XRPD result after stress: γ
[3]; 97% RH (RT), 16 days, listed as Form μ
  XRPD result after stress: converted to Form Beta
[3]; 97% RH (RT), 16 days, listed as Rifaximin Form μ
  XRPD result after stress: μ + β

## CO[C@H]1/C=C/O[C@@]2(C)Oc3c(C)c(O)c4c(O)c(c5c(nc6cc(C)ccn65)c4c3C2=O)NC(=O)/C(C)=C\C=C\[C@H](C)[C@H](O)[C@@H](C)[C@@H](O)[C@@H](C)[C@H](OC(C)=O)[C@@H]1C [Form Omicron, Rifaximin]
[2]
  wt % change on equilibration at 5% RH: −15.0 wt % change on equilibration at 5% RH
[2]; DVS, equilibration at 5% RH, listed as Rifaximin Form Omicron
  initial weight loss at 5% RH upon equilibration: ~15 wt %
[2]; listed as Rifaximin Form Omicron
  Post-DVS XRPD (solid form after moisture sorption): Form Iota with a significant amount of disorder

## CO[C@H]1/C=C/O[C@@]2(C)Oc3c(C)c(O)c4c(O)c(c5c(nc6cc(C)ccn65)c4c3C2=O)NC(=O)/C(C)=C\C=C\[C@H](C)[C@H](O)[C@@H](C)[C@@H](O)[C@@H](C)[C@H](OC(C)=O)[C@@H]1C [Form Pi, Rifaximin]
[2]; DVS, desorption 95 to 5% RH
  weight lost from 95 to 5% RH: 11.3 wt % lost from 95 to 5% RH
[2]; DVS, desorption 95 to 5% RH, listed as Rifaximin Form Pi
  weight loss from 95 to 5% RH: 11.3%
[2]; DVS, equilibration at 5% RH
  initial weight loss at 5% RH upon equilibration: 1.3 wt %
[2]; DVS, equilibration at 5% RH, signed change
  wt % change on equilibration at 5% RH: −1.3 wt % change on equilibration at 5% RH
[2]; DVS, listed as Rifaximin Form Pi
  weight gain (adsorption) from 5 to 95% RH: 10.5 wt %
[2]; DVS, listed as Rifaximin Pi
  weight gain (adsorption) from 5 to 95% RH: 10.5 wt % gain from 5 to 95% RH
[2]; listed as Rifaximin Form Pi
  hygroscopicity (in words): reversibly hygroscopic
  Post-DVS XRPD (solid form after moisture sorption): Form Pi
[2]; listed as Rifaximin Pi
  Post-DVS XRPD (solid form after moisture sorption): Pi

## CO[C@H]1/C=C/O[C@@]2(C)Oc3c(C)c(O)c4c(O)c(c5c(nc6cc(C)ccn65)c4c3C2=O)NC(=O)/C(C)=C\C=C\[C@H](C)[C@H](O)[C@@H](C)[C@@H](O)[C@@H](C)[C@H](OC(C)=O)[C@@H]1C [Form Theta, Rifaximin, reference compound]
[3]; 75% RH (40° C.), 6 hrs
  form after exposure to humidity (XRPD): μ + η
[3]; 75% RH (RT), 6 hrs
  form after exposure to humidity (XRPD): convert at least partially to Form μ
[3]; 75% RH (RT), 6 hrs, listed as Rifaximin Form Theta
  form after exposure to humidity (XRPD): convert to Form μ
[3]; 75% RH (RT), 6 hrs, listed as θ
  form after exposure to humidity (XRPD): μ + ι

## CO[C@H]1/C=C/O[C@@]2(C)Oc3c(C)c(O)c4c(O)c(c5c(nc6cc(C)ccn65)c4c3C2=O)NC(=O)/C(C)=C\C=C\[C@H](C)[C@H](O)[C@@H](C)[C@@H](O)[C@@H](C)[C@H](OC(C)=O)[C@@H]1C [Form Xi, Rifaximin]
[2]; DVS, desorption 95 to 5% RH, listed as rifaximin Form Xi
  weight loss from 95 to 5% RH: 10.5%
[2]; DVS, equilibration at 5% RH, listed as rifaximin Form Xi
  initial weight loss upon equilibration at 5% RH: 7.2%
[2]; DVS, listed as rifaximin Form Xi
  weight gain from 5 to 95% RH: 7.9%
[2]; listed as rifaximin Form Xi
  Post-DVS XRPD (solid form after moisture sorption): became disordered

## CO[C@H]1/C=C/O[C@@]2(C)Oc3c(C)c(O)c4c(O)c(c5c(nc6cc(C)ccn65)c4c3C2=O)NC(=O)/C(C)=C\C=C\[C@H](C)[C@H](O)[C@@H](C)[C@@H](O)[C@@H](C)[C@H](OC(C)=O)[C@@H]1C [Form Zeta, Rifaximin]
[3]; 43% RH, 3 days, room temperature
  XRPD Form after stressing: conversion to Form γ
[3]; 43% RH, 3 days, room temperature, listed as Form ζ
  XRPD Form after stressing: conversion to Form γ
[3]; 43% RH, 3 days, room temperature, listed as ζ
  XRPD Form after stressing: γ
[3]; 51% RH (RT), ~20 min
  form after exposure to humidity (XRPD): converts to Form Mu
[3]; 51% RH (RT), ~20 min, listed as ζ
  form after exposure to humidity (XRPD): μ
[3]; 58% RH, 3 days, room temperature, listed as ζ
  XRPD Form after stressing: ζ
[3]; 75% RH, 3 days, room temperature, listed as ζ
  XRPD Form after stressing: ζ
[3]; 94% RH, 3 days, room temperature, listed as Form ζ
  XRPD Form after stressing: Form γ+γ−1
[3]; 94% RH, 3 days, room temperature, listed as ζ
  XRPD Form after stressing: β + ζ
[3]; stability chamber 75% RH @40° C., 1 day
  XRPD Form after stressing: ζ + Y
[1]; air dry
  XRPD Form after drying: γ
[1]; open vial in hood
  XRPD Form after drying: γ
[1]; stored in refrigerator 3 weeks
  XRPD Form after storage: ζ
[1]; vac dry
  XRPD Form after drying: γ + η
[1]; vac oven / under vacuum, ambient, 1 day
  XRPD Form after drying: Form η
[1]; vac oven / under vacuum, ambient, 1 day, listed as ζ
  XRPD Form after drying: η
[1]; vac oven, 40° C., 1 day
  XRPD Form after drying: remained unchanged
[1]; vac oven, 45° C., 2 days
  XRPD Form after drying: η

## CO[C@H]1/C=C/O[C@@]2(C)Oc3c(C)c(O)c4c(O)c(c5c(nc6cc(C)ccn65)c4c3C2=O)NC(=O)/C(C)=C\C=C\[C@H](C)[C@H](O)[C@@H](C)[C@@H](O)[C@@H](C)[C@H](OC(C)=O)[C@@H]1C [α dry, Rifaximin, reference compound]
[3]; 58% RH, 2 days, room temperature
  XRPD Form after stressing: β
[3]; 75% RH, 2 days, room temperature
  XRPD Form after stressing: β
[3]; 94% RH, 2 days, room temperature
  XRPD Form after stressing: β

## CO[C@H]1/C=C/O[C@@]2(C)Oc3c(C)c(O)c4c(O)c(c5c(nc6cc(C)ccn65)c4c3C2=O)NC(=O)/C(C)=C\C=C\[C@H](C)[C@H](O)[C@@H](C)[C@@H](O)[C@@H](C)[C@H](OC(C)=O)[C@@H]1C [α, Rifaximin, reference compound]
[3]; P205, 4 days, room temperature
  XRPD Form after stressing: α dry

— patent US9133217B2 (Salix Pharmaceuticals, Ltd, priority 2011, dated 2015)
